Data reported in US4395401A, “Renally active dipeptides” (SmithKline Beckman Corporation, priority 1981, dated 1983).

How the values were obtained:
anesthetized dogs [1] = assay: Infusion to anesthetized dogs, measuring renal blood flow and renal vascular resistance (procedure of U.S. Pat. No. 4,197,297); assay type: in vivo, dog
From the text: Specific results are included in the examples.

anesthetized dogs [2] = assay: Secondary testing (ED15); assay type: in vivo, dog
[3] = infusion 30 μg/kg/min, anesthetized dog
[4] = infusion 300 μg/kg/min, anesthetized dog
[5] = 300 μg/kg/min, anesthetized dog
[6] = infusion at 30 and 300 μg/kg/min

## CC(Cc1ccc(O)cc1)(NC(=O)[C@@H]1CCCN1C(=O)CCCc1ccc(O)cc1)C(=O)NCCCN.Cl (stereo partly drawn) [Example 4, N-4-(4'-hydroxyphenylbutyryl)-L-prolyl-D,L-α-methyltyrosine ω-aminopropylamide, hydrochloride]
Anesthetized dogs [1]; 3 μg/kg/min, anesthetized dog
  decrease of renal vascular resistance: -9.5
  increase of renal blood flow: +8.5

## NCCc1ccc(O)c(O)c1 [Dopamine, reference compound]
Anesthetized dogs [2]
  ED15: 0.0035 mg/kg

## CC(=O)O.COc1ccc(CC(C)(NC(=O)[C@@H]2CCCN2C(=O)CCCc2ccc(O)cc2)C(=O)N[C@@H](CCCNC(=N)N)C(=O)O)cc1OC (stereo partly drawn) [Example 1, N-4-(4'-hydroxyphenyl)-butyryl-L-prolyl-D,L-α-methyl-3,4-dimethoxyphenylalanyl-L-arginine acetic acid salt]
Anesthetized dogs [1]; [3]
  decrease of renal vascular resistance: -21.3
  increase of renal blood flow: +18%
Anesthetized dogs [2]
  ED15: 0.506 mg/kg

## CC(=O)O.C[C@@](Cc1ccccc1)(NC(=O)[C@@H]1CCCN1C(=O)CCCc1ccc(O)cc1)C(=O)N[C@@H](CCCNC(=N)N)C(=O)O.O [Example 6, N-4-(4'-hydroxyphenyl)-butyryl-L-prolyl-D,L-α-methylphenylalanyl-L-arginine 1.5HOAc.1H2 O]
Anesthetized dogs [1]; [3]
  increase of renal blood flow: +12%
Anesthetized dogs [1]; [4]
  increase of renal blood flow: +11%

## CC(Cc1ccccc1)(NC(=O)[C@@H]1CCCN1C(=O)CCCc1ccc(O)cc1)C(=O)NCCCN.Cl (stereo partly drawn) [Example 5, N-4-(4'-hydroxyphenylbutyryl)-L-prolyl-D,L-α-methylphenylalanine ω-aminopropylamide, hydrochloride]
Anesthetized dogs [1]; infused in anesthetized dogs
  cumulative drug effect: demonstrated a cumulative drug effect
Anesthetized dogs [1]; [4]
  increase of renal blood flow: +11.7%
Anesthetized dogs [1]; infusion 300 μg/kg/min, anesthetized dogs
  decrease of vascular renal resistance: 11.3%

## CC(=O)O.CC(Cc1ccc(O)cc1)(NC(=O)[C@@H]1CCCN1C(=O)CCCc1ccc(O)cc1)C(=O)N[C@@H](CCCNC(=N)N)C(=O)O (stereo partly drawn) [Example 3, N-4-(4'-hydroxyphenyl)-butyryl-L-prolyl-D,L-α-methyltyrosyl-L-arginine acetic acid salt]
Anesthetized dogs [1]; 3 μg/kg/min, anesthetized dog
  decrease of renal vascular resistance: -12
  increase of renal blood flow: +8.0
Anesthetized dogs [1]; 30 μg/kg/min, anesthetized dog
  increase of renal blood flow: +12.0
Anesthetized dogs [1]; [5]
  decrease of renal vascular resistance: -11
  increase of renal blood flow: +11.0
Anesthetized dogs [1]; cumulative dose at 3, 30 and 300 μg/kg/min
  increase of renal blood flow after a cumulative dose: 28%
Anesthetized dogs [1]; [3]
  decrease of renal vascular resistance: -9

## COc1ccc(CC(C)(NC(=O)[C@@H]2CCCN2C(=O)CCCc2ccc(O)cc2)C(=O)NCCCN)cc1OC.Cl (stereo partly drawn) [Example 2, N-4-(4'-hydroxyphenyl)-butyryl-L-prolyl-D,L-α-methyl-3,4-dimethoxyphenylalanine 3-aminopropylamide hydrochloride]
Anesthetized dogs [1]; infusion 3 μg/kg/min
  decrease of renal vascular resistance: -11%
  increase of renal blood flow: +13.5%
Anesthetized dogs [1]; [6]
  renal blood flow (in words): increased renal blood
  renal vascular resistance (in words): decreased renal vascular resistance
